The values below come from patent US7399639B2, “Sensors, and methods of making and using the same” (Massachusetts Institute of Technology, priority 2003, dated 2008).

Several values for one entry are separate records, joined by “and”; a condition that tells them apart may be missing. Identical values can stand only once. Like-named read-outs stand apart in the source and are kept apart here.

The conditions of data set [1]: reported elsewhere; cited from earlier work.
For data set [2] the following is noted: reported elsewhere, cited from earlier work.
For data set [3] the following is noted: reported elsewhere; cited from earlier work. The source holds these as a separate data set.
The conditions of data set [4]: reported elsewhere; cited from earlier work. This is another data set of the same source.
Data set [5] can be described thus: Zn(II) binding studies (fluorescence spectroscopy), dual-metal buffering system, Zinpyr dyes. To be noted: titration with dual-metal buffering system, 0.17 nM to 25 nM free Zn(II). How it is done:
General Spectroscopic Methods. PIPES (piperazine-N,N′-bis(2-ethanesulfonic acid) from Calbiochem, KCl (99.997%), and ZnCl2 (99.999%) are purchased and used as received. All experiments for this Example Eight, with the exception of the pKa experiment, are conducted under stimulated physiological conditions using 50 mM PIPES, 100 mM KCl adjusted to pH 7 via drop-wise addition of KOH. Millipore water is used for all aqueous solutions, which are filtered through a 0.2 μm cellulose filter prior to use (buffered dye solutions should not be put through the filters because the dyes will get stuck). An Orion glass electrode, which is calibrated prior to each use, is used to determine solution pH. The accuracy of each micropipette is verified prior to use. Zinc solutions are prepared from 100 mM and 10 mM stock solutions in water (pH 5). […] The equivalence point at 321 nm and at 291 nm is determined and used to calculate the Zn(II) concentration. […]
Zn(II) Binding Studies (Fluorescence Spectroscopy). The dissociation constants, Kd, for Zn(II) binding were determined using a dual-metal buffering system, which affords concentrations of free Zn(II) in the nM range. […] The response was quantified by integrating the emission intensity from 505-650 nm and normalizing. […]
The binding affinities for Zinpyr-5 and Zinpyr-6 were determined using the dual-metal buffering system previously described. […]

A short description of data set [6]: Quantum yield and emission measurements of Zinpyr dyes. It is filed as physicochemical. How it is done: (§1) General Spectroscopic Methods. PIPES (piperazine-N,N′-bis(2-ethanesulfonic acid) from Calbiochem, KCl (99.997%), and ZnCl2 (99.999%) are purchased and used as received. All experiments for this Example Eight, with the exception of the pKa experiment, are conducted under stimulated physiological conditions using 50 mM PIPES, 100 mM KCl adjusted to pH 7 via drop-wise addition of KOH. Millipore water is used for all aqueous solutions, which are filtered through a 0.2 μm cellulose filter prior to use (buffered dye solutions should not be put through the filters because the dyes will get stuck). An Orion glass electrode, which is calibrated prior to each use, is used to determine solution pH. The accuracy of each micropipette is verified prior to use. Zinc solutions are prepared from 100 mM and 10 mM stock solutions in water (pH 5). The concentrations of the stock solutions is verified by spectrophotometric titration with 2,2′:6′,2″-terpyridine, which is was performed a minimum of three times per solution. In a typical titration, 0.5 μL aliquots of a 10 mM (nominal) Zn(II) solution in water is added to a 10 μM solution of terpyridine in 50 mM PIPES, 100 mM KCl, pH 7 prepared from a 100 mM stock solution in DMSO. The equivalence point at 321 nm and at 291 nm is determined and used to calculate the Zn(II) concentration. Stock solutions of Zinpyr-5 (0.76 mM) and Zinpyr-6 (0.41 mM) in DMSO are prepared, stored at −25° C., and thawed in the dark immediately prior to use. All spectral data are manipulated with the KaleidaGraph software package.
Fluorescence Spectroscopy. Emission spectra are obtained using a Hitachi F-3010 spectrofluorimeter linked to a Pentium PC running the SpectraCalc software package. A 150 W Xe lamp (Ushio Inc.) operating at a current of 5 A provides the excitation. A rhodamine quantum counter is used to normalize the spectra for excitation intensity, and manufacturer-supplied correction curves are used to normalize the emission spectra. Manufacturer supplied photomultiplier curves are used to correct for emission intensity. A circulating water bath is used during all experiments to regulate the temperature at 25.0° C.±0.1° C. All spectra are obtained using 3 nm slit widths and a 240 nm/min scan speed, and all samples are contained in a 1 cm×1 cm quartz cuvette with a 3.5 mL volume. All measurements are made in triplicate, with the exception of the Zinpyr-6 pKa titration, and on different days to assure the authenticity of the results.
Quantum Yield Measurements. The quantum yields of Zinpyr-5 and Zinpyr-6 are determined using a solution of fluorescein in 0.1 N NaOH (φ=0.95) as a reference. In a typical experiment, a 6 mL solution of 1 μM Zinpyr is prepared. For metal-free studies, 6 μL of 100 mM K4EDTA is added to chelate any adventitious metal ions. To determine the quantum efficiencies of the metal-bound dyes, either 2 μL (Zinpyr-5) or 6 μL (Zinpyr-6) of a 100 mM ZnCl2 stock solution is added to a 1 μM Zinpyr solution. The concentration of the reference solution is adjusted to match the excitation spectra of the Zinpyr dye, and the appropriate excitation wavelength is determined from where the reference and probe excitation spectra intersect. Excitation is provided at 497 nm (Zinpyr-5 and Zinpyr-6, metal-free), 491 nm (Zinpyr-5, metal-bound), or 493 (Zinpyr-6, metal-bound). Emission spectra are integrated from 450-650 nm and the quantum yields were calculated using the standard equation. Godwin, H. A.; Berg, J. M. J. Am. Chem. Soc. 1996, 118, 6514-6515.

Data set [7] in a line: Protonation constants that affect fluorescence of Zinpyr dyes. The data set is classed as physicochemical. To be noted: for pKa: aqueous solution of 100 mM KCl, 10 mM KOH, Zinpyr-6 value estimated from preliminary results. The method, then:
Studies of Protonation Constants that Effect Fluorescence. The apparent protonation constants that affect fluorescence are determined by plotting the integrated emission intensity versus pH from ˜12.5 to 2. In a typical experiment, a 30 mL solution of 1 μM Zinpyr in 100 mM KCl, 10 mM KOH is adjusted to pH 12.5 by drop-wise addition of KOH. Aliquots of 6 N, 2 N, 1 N, 0.5 N, 0.5 N, 0.1 N, and 0.01 N HCl are added to achieve pH changes of approximately […], and the emission spectrum is gathered at each interval. The overall volume change for each experiment is monitored so as not to exceed ˜3%. Excitation is provided at 498 nm for Zinpyr-5 and at 500 nm for Zinpyr-6. Data is integrated from 505 nm to 650 nm, normalized and plotted against pH. The data were fit to the non-linear expression previously described. Godwin, H. A.; Berg, J. M. J. Am. Chem. Soc. 1996, 118, 6514-6515.

Data set [8] in a line: Metal ion selectivity measurements of Zinpyr dyes. To be noted: 1 μM Zinpyr, divalent first-row transition metals and Cd(II). The method, then: Metal Ion Selectivity Measurements. The metal ion selectivity of Zinpyr-5 and Zinpyr-6 for a number of divalent first-row transition metals, in addition to cadmium, is investigated using fluorescence spectroscopy. Aqueous metal ion solutions for Ca(II), Mg(II), Mn(II), Co(II), Ni(II) and Cd(II) are prepared from the chloride salts and Millipore water. The Cu(II) solution are prepared from copper sulfate and Fe(II) solutions are prepared immediately before use with ferrous ammonium sulfate and Millipore water that was thoroughly purged with Ar. In a typical experiment, 15 μL of a ˜10 mM metal solution is added to a 1 μM Zinpyr solution (3 mL) and the emission spectra is recorded with excitation at 498 nm (Zinpyr-5) or 500 nm (Zinpyr-6). […] of 10 mM ZnCl2 is then added and the emission spectra is obtained. The spectra are integrated from 505-650 nm (Zinpyr-5) or 450-650 nm (Zinpyr-6) and normalized.

Data set [9] in a line: UV-visible spectroscopy of Zinpyr dyes (excitation maxima, molar absorptivity). To be noted: for ε: at excitation maximum. It is filed as physicochemical. The method, then:
as §1
UV-Visible Spectroscopy. Excitation spectra are obtained using a Cary IE scanning spectrophotometer controlled by a Pentium PC running the manufacturer supplied software program. A circulating water bath is used during all acquisitions to maintain the temperature at 25.0° C.±0.1° C. All data are collected using a 600 nm/min scan speed and a 1 nm data interval. […] Molar absorptivity values are determined from a minimum of three titrations over a concentration range of 10 μM to 1 μM. […]

Setting [10] is: metal-free, 50 mM PIPES, 100 mM KCl, pH 7.

With `O=C(O)c1ccccc1-c1c2cc(Cl)c(=O)cc-2oc2c(CNc3ccccc3CN(Cc3ccccn3)Cc3ccccn3)c(O)ccc12` [Zinpyr-4], the “increase in integrated emission in response to the dual-metal buffering system” value in data set [1] is given as around 5 fold. For the same compound, the quantum efficiency in data set [2] (metal-free) is given as 0.05. In data set [2], the “increase in brightness upon Zn(II) binding” value is on record as 6.7 fold and the “quantum efficiency of Zn(II) complex” value is given as 0.34. The “pKa of the aniline nitrogen” value in [3] is listed as 7.2. Further, the metal ion selectivity result in [4] is “Zn(II) and Cd(II) selective”.

In the case of `O=C(O)c1ccccc1-c1c2cc(Cl)c(=O)cc-2oc2c(CNc3ccc(Cl)cc3CN(Cc3ccccn3)Cc3ccccn3)c(O)ccc12` [Zinpyr-6], the “increase in integrated emission” value in [5] is 2.5- to 3 fold and ~3 fold. In data set [6], the “increase in brightness upon Zn(II) coordination” value was 3.8 fold and 3.7 fold. The “increase in quantum efficiency upon addition of excess Zn(II)” value in [6] is listed as 3.4 fold. Also, the figures for the “brightness (φ×ε)” value in [6] (Zn(II) bound) and in [6] (metal-free) were 33,000 M^−1 cm^−1 and 8,900 M^−1 cm^−1, respectively. Also, the emission maximum in data set [6] (Zn(II) bound) is reported as 515 nm; in data set [6] (setting [10]) it was 519 nm. Besides, the quantum efficiency stood at 0.34 in data set [6] (Zn(II) bound) and 0.10 in data set [6] (setting [10]). In addition, the “pH at which maximum emission is reached” value in data set [7] (Zinpyr-6 data preliminary) is around 5. The pKa – broadly, the negative logarithm of the acid dissociation constant – in data set [7] (read-out: apparent pKa, first protonation event (fluorescence enhancement; tertiary amine)) was around 10; in data set [7] (read-out: apparent pKa, second protonation event (fluorescence enhancement; aniline nitrogen)) it was around 6.4; in data set [7] (read-out: apparent pKa, third protonation event (fluorescence quenching)) it was around 4.6. In [8], the metal ion selectivity entry was “Zn(II) and Cd(II) selective”. Besides, the excitation maximum in data set [9] (Zn(II) bound) came out at 495 nm. The ε in data set [9] (Zn(II) bound) is listed as 98,000 M^−1 cm^−1; in data set [9] (metal-free), 88,600 M^−1 cm^−1.
